From patent US7700637B2, “Organic compounds” (Novartis AG, priority 2003, dated 2010)

SMILES	melting point [°C]
Cc1oc(-c2ccccc2)nc1COc1ccc(S(=O)(=O)Nc2ccc(F)cc2C(=O)O)cc1 [Compd 4-14, 5-Fluoro-2-[4-(5-methyl-2-phenyl-oxazol-4-ylmethoxy)-benzenesulfonylamino]-benzoic acid]	213 to 215
Cc1oc(-c2ccccc2)nc1COc1ccc(S(=O)(=O)Nc2cc(F)ccc2C(=O)O)cc1 [Compd 4-10, 4-Fluoro-2-[4-(5-methyl-2-phenyl-oxazol-4-ylmethoxy)-benzenesulfonylamino]-benzoic acid]	212 to 214
COc1cc(OC)c(C(=O)O)c(OCc2ccc(OCCc3nc(-c4ccccc4)oc3C)cc2)c1 [Compd 21-1, 2,4-Dimethoxy-6-{4-[2-(5-methyl-2-phenyl-oxazol-4-yl)-ethoxy]-benzyloxy}-benzoic acid]	58 to 60
Cc1oc(-c2ccc(C(F)(F)F)cc2)nc1COc1ccc(S(=O)(=O)Nc2cc(Cl)ccc2C(=O)O)cc1 [Compd 4-3, 4-Chloro-2-{4-[5-methyl-2-(4-trifluoromethyl-phenyl)-oxazol-4-ylmethoxy]-benzene-sulfonylamino}benzoic acid]	191 to 193
Cc1oc(-c2ccccc2)nc1COc1ccc(S(=O)(=O)Nc2cccc(F)c2C(=O)O)cc1 [Compd 4-4, 6-Fluoro-2-[4-(5-methyl-2-phenyl-oxazol-4-ylmethoxy)-benzenesulfonylamino]-benzoic acid]	203 to 205
COc1ccc(C(=O)O)c(OCc2ccc(OCCc3nc(-c4ccccc4)oc3C)cc2)c1 [Example 11, 4-Methoxy-2-{4-[2-(5-methyl-2-phenyl-oxazol-4-yl)-ethoxy]-benzyloxy}-benzoic acid]	113 to 115
Cc1oc(-c2ccccc2)nc1COc1ccc(S(=O)(=O)Nc2cccc(C(F)(F)F)c2C(=O)O)cc1 [Compd 4-6, 2-[4-(5-Methyl-2-phenyl-oxazol-4-ylmethoxy)-benzenesulfonylamino]-6-trifluoromethyl-benzoic acid]	197 to 198
Cc1oc(-c2ccccc2)nc1CCOc1ccc(S(=O)(=O)Nc2cc(Cl)ccc2C(=O)O)cc1 [Example 2, 4-Chloro-2-{4-[2-(5-methyl-2-phenyl-oxazol-4-yl)-ethoxy]-benzenesulfonylamino}-benzoic acid]	223 to 225
Cc1cc(OC(C)C)cc(OCc2ccc(OCCc3nc(-c4ccccc4)oc3C)cc2)c1C(=O)O [Compd 21-7, 4-Isopropoxy-2-methyl-6-{4-[2-(5-methyl-2-phenyl-oxazol-4-yl)-ethoxy]-benzyloxy}-benzoic acid]	157 to 158
CCCOc1cc(C)c(C(=O)O)c(OCc2ccc(OCc3nc(-c4ccccc4)oc3C)cc2)c1 [Compd 21-3, 2-Methyl-6-[4-(5-methyl-2-phenyl-oxazol-4-ylmethoxy)-benzyloxy]-4-propoxy-benzoic acid]	182 to 183
Cc1cc(C)c(NS(=O)(=O)c2ccc(OCc3nc(-c4ccccc4)oc3C)cc2)c(C(=O)O)c1 [Compd 4-25, 3,5-Dimethyl-2-[4-(5-methyl-2-phenyl-oxazol-4-ylmethoxy)-benzenesulfonylamino]-benzoic acid]	165 to 166
CC(=O)Nc1ccc(NS(=O)(=O)c2ccc(OCc3nc(-c4ccccc4)oc3C)cc2)c(C(=O)O)c1 [Compd 4-18, 5-Acetylamino-2-[4-(5-methyl-2-phenyl-oxazol-4-ylmethoxy)-benzenesulfonylamino]-benzoic acid]	89 to 90
Cc1oc(-c2ccccc2)nc1COc1ccc(S(=O)(=O)Nc2cc(Cl)ccc2C(=O)O)cc1 [Compd 4-7, 4-Chloro-2-[4-(5-methyl-2-phenyl-oxazol-4-ylmethoxy)-benzenesulfonylamino]-benzoic acid]	98 to 100
CCOc1ccc(CC(=O)Nc2ccc(S(=O)(=O)Nc3ccccc3C(=O)O)cc2)cc1 [Example 9, 2-{4-[2-(4-Ethoxy-phenyl)-acetylamino]-benzenesulfonylamino}-benzoic acid]	241 to 242
COc1cccc(OCc2ccc(OCc3nc(-c4ccccc4)oc3C)cc2)c1C(=O)O [Compd 21-9, 2-Methoxy-6-[4-(5-methyl-2-phenyl-oxazol-4-ylmethoxy)-benzyloxy]-benzoic acid]	180 to 181
Cc1oc(-c2ccccc2)nc1CCOc1ccc(COc2cc3ccccc3cc2C(=O)O)cc1 [Example 14, 3-{4-[2-(5-Methyl-2-phenyl-oxazol-4-yl)-ethoxy]-benzyloxy}-naphthalene-2-carboxylic acid]	135 to 137
Cc1ccc(C(=O)O)c(NS(=O)(=O)c2ccc(OCc3nc(-c4ccccc4)oc3C)cc2)c1 [Compd 4-12, 4-Methyl-2-[4-(5-methyl-2-phenyl-oxazol-4-ylmethoxy)-benzenesulfonylamino]-benzoic acid]	207 to 208
COc1cccc(OCc2ccc(OCCc3nc(-c4ccccc4)oc3C)cc2)c1C(=O)O [Compd 21-10, 2-Methoxy-6-{4-[2-(5-methyl-2-phenyl-oxazolyl)-ethoxy]-benzyloxy}-benzoic acid]	183 to 184
COc1ccc(NS(=O)(=O)c2ccc(OCCc3nc(-c4ccccc4)oc3C)cc2)c(C(=O)O)c1OC [Compd 4-20, 2,3-Dimethoxy-6-{4-[2-(5-methyl-2-phenyl-oxazol-4-yl)-ethoxy]-benzenesulfonyl-amino}benzoic acid]	59 to 60
Cc1ccc(NS(=O)(=O)c2ccc(OCc3nc(-c4ccccc4)oc3C)cc2)c(C(=O)O)c1 [Compd 4-17, 5-Methyl-2-[4-(5-methyl-2-phenyl-oxazol-4-ylmethoxy)-benzenesulfonylamino]-benzoic acid]	185 to 187
O=C(NCc1ccc(C(F)(F)F)cc1)c1ccc(S(=O)(=O)Nc2ccccc2C(=O)O)cc1 [Compd 6-1, 2-[4-(4-Trifluoromethyl-benzylcarbamoyl)-benzenesulfonylamino]-benzoic acid]	330 to 335
Cc1oc(-c2ccccc2)nc1CSc1ccc(S(=O)(=O)Nc2ccccc2C(=O)O)cc1 [Example 3, 2-[4-(5-Methyl-2-phenyl-oxazol-4-ylmethylsulfanyl)-benzenesulfonylamino]-benzoic acid]	182 to 184
Cc1oc(-c2ccccc2)nc1COc1ccc(COc2cc(C(F)(F)F)cc(C(F)(F)F)c2C(=O)O)cc1 [Compd 21-5, 2-[4-(5-Methyl-2-phenyl-oxazol-4-ylmethoxy)-benzyloxy]-4,6-bis-trifluoromethyl-benzoic acid]	190 to 191
O=C(NCCc1ccc(F)cc1)c1ccc(S(=O)(=O)Nc2ccccc2C(=O)O)cc1 [Example 7, 2-{4-[2-(4-Fluoro-phenyl)-ethylcarbamoyl]-benzenesulfonylamino}-benzoic acid]	85 to 86
Cc1oc(-c2ccccc2)nc1COc1ccc(S(=O)(=O)Nc2ccc(Cl)cc2C(=O)O)cc1 [Compd 4-15, 5-Chloro-2-[4-(5-methyl-2-phenyl-oxazol-4-ylmethoxy)-benzenesulfonylamino]-benzoic acid]	207 to 208
Cc1oc(-c2ccccc2)nc1CCOc1ccc(COc2cccc(F)c2C(=O)O)cc1 [Compd 21-8, 2-Fluoro-6-{4-[2-(5-methyl-2-phenyl-oxazol-4-yl)-ethoxy]-benzyloxy}-benzoic acid]	142 to 143
